Measurements as given in US20230391772A1, “METHODS AND COMPOSITIONS FOR TARGETED PROTEIN DEGRADATION” (Ranok Therapeutics (Hangzhou) Co. Ltd., priority 2020, published 2023).

Assays:
[1] = test system: MIA PaCa-2 human pancreatic carcinoma; assay: MIA PaCa-2 CCK-8 proliferation assay; type: cell-based; conditions: MIA PaCa-2 cells
How it was run: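 Compounds were tested as a 3-fold series from 20 μM down to 1.02 nM in CCK-8 absorbance assays. The lines used were NCI-H23 and NCI-H358, each with 1 KRAS(G12C) copy, and MIA PaCa-2 with 2 copies. Inhibition was derived relative to DMSO controls, with a no-cell blank subtracted.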

[2] = target: T1, KRAS(G12C) (Homo sapiens, UniProt P01116, G12C); assay: KRAS(G12C)/SOS1 homogeneous time-resolved fluorescence (HTRF) assay; set-up: purchased Cisbio 63ADK000CB16PEG; conditions: absence of GTP, 4° C. for 3 hr, read-out: KRAS (G12C) binding
How it was run: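 HTRF kit measuring compound-induced block of KRAS(G12C)-SOS1 interaction without GTP. Compounds tested as 3-fold serial dilutions down to 1.02 nM, incubated with reaction components 3 h at 4 °C in sealed plates before fluorescence read.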

[3] = target: T1, KRAS(G12C); assay: KRAS(G12C) Western blot protein degradation assay in LU65A cells; type: cell-based; set-up: LU65A human lung cancer cell line, which expresses KRAS(G12C); host or cells: LU65A; conditions: 6 hr
Method: The following cancer cell lines were employed: BT-474 human breast carcinoma (ATCC, #HTB-20); MIA PaCa-2 human pancreatic carcinoma [2 copies KRAS(G12C)](ATCC, #CRL-1420); NCI-H23 human non-small cell lung cancer [1 copy KRAS(G12C)](ATCC, #CRL-5800); NCI-H358 human non-small cell lung cancer [1 copy KRAS(G12C)](ATCC, #CRL-5807); LU65A human lung carcinoma (Pharmaron, Beijing, China). Cell lines were cultured essentially according to ATCC and Pharmaron recommendations.
KRAS(G12C) Western Blot Protein Degradation Assay
The MIA PaCa-2 human pancreatic carcinoma cell line and LU65A human lung cancer cell line, which expresses KRAS(G12C), were seeded in 6- or 12-well tissue culture plates, and after 1 hr, test compounds were added at various concentrations and incubated at 37° C./5% CO2 for 48 hr (MIA Paca-2) and 6 hr (LU65A) respectively. Cells were then washed with cold PBS, aspirated and cold RIPA buffer containing a protease/phosphatase inhibitor cocktail was added to lyse cells. After centrifugation, the total protein concentrations of cell lysates were determined using the BCA protein assay. Samples were normalized for equivalent protein concentrations, 5×SDS-PAGE loading buffer added and denatured at 100° C. for 10 min. 20 μl of each sample/well was loaded on a SDS-PAGE gel and electrophoresed for 20 min at 80 V, then 120 V for 1.5 hr. Gels were then electroblotted to nitrocellulose membranes using a wet-transfer method at 250 mA for 2.5 hr. Membranes were incubated with blocking buffer for 1 hr and washed 3 times with TBST for 5 min. Membranes were then incubated with anti-KRAS (Sigma-Aldrich, #SAB1404011) and anti-β-Actin monoclonal antibodies (Cell Signaling Technology, #3700) diluted in blocking buffer at 4° C. overnight per the manufacturer's recommendations. After washing 3 times, blots were incubated with appropriately labeled secondary antibodies for 1 hr at room temperature and washed again. Fluorescence imaging and quantitation was performed using a LI-COR Odyssey. Results was analyzed using GraphPad Prism 7 software. Compound degradation of was determined by the following equation and DC50 values (the concentration at which 50% of the maximal degradation of KRAS occurs) calculated using GraphPad Prism 7 software:
% Inhibition=100−(D−B)/(S−B)*100%. • S: Fluorescence intensity of cells with antibody • D: Fluorescence intensity of compound-treated cells with antibody • B: Fluorescence intensity of cells without antibody

T1 sequence (P01116 1-188 isoform P01116-2 G12C): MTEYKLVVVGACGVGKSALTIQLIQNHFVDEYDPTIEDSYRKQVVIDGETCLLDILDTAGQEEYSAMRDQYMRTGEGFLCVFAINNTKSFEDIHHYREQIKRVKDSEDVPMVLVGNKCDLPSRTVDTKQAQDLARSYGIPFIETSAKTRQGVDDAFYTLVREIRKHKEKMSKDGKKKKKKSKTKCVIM

SMILES	EC50 ([1]; Homo sapiens, MIA PaCa-2, 72 h)	IC50 [2]	DC50 [3]	EC50 ([1]; 72 hr)
C=CC(=O)N1CCN(c2nc(OCCN3CCC(N4CCN(Cc5ccc(-n6c(O)nnc6-c6cc(C)c(O)cc6O)cc5)CC4)CC3)nc3c2CCN(c2cccc4cccc(Cl)c24)C3)C[C@@H]1CC#N [Compound 236, (S)-2-(1-acryloyl-4-(7-(8-chloronaphthalen-1-yl)-2-(2-(4-(4-(4-(3-(2,4-dihydroxy-5-methylphenyl)-5-hydroxy-4H-1,2,4-triazol-4-yl)benzyl)piperazin-1-yl)piperidin-1-yl)ethoxy)-5,6,7,8-tetrahydropyrido[3,4-d]pyrimidin-4-yl)piperazin-2-yl)acetonitrile]	> 1000 nM	< 100 nM	> 1000 nM	–
C=CC(=O)N1CCN(c2nc(OCCN3CCC(N4CCN(Cc5ccc(-n6c(O)nnc6-c6cc(C(C)C)c(O)cc6O)cc5)CC4)CC3)nc3c2CCN(c2cccc4cccc(Cl)c24)C3)C[C@@H]1CC#N [Compound 237, (S)-2-(1-acryloyl-4-(7-(8-chloronaphthalen-1-yl)-2-(2-(4-(4-(4-(3-(2,4-dihydroxy-5-isopropylphenyl)-5-hydroxy-4H-1,2,4-triazol-4-yl)benzyl)piperazin-1-yl)piperidin-1-yl)ethoxy)-5,6,7,8-tetrahydropyrido[3,4-d]pyrimidin-4-yl)piperazin-2-yl)acetonitrile]	100 to 1000 nM	100 to 1000 nM	> 1000 nM	–
C=CC(=O)N1CCN(c2nc(OC[C@@H]3CC[C@H](CN4CCN(C(=O)C5CCN(Cc6ccc(-n7c(C(=O)NCC)nnc7-c7cc(C(C)C)c(O)cc7O)cc6)CC5)CC4)N3C)nc3c2CCN(c2cccc4cccc(Cl)c24)C3)C[C@@H]1CC#N [Compound 240, 4-(4-{[4-(4-{[(2R,5S)-5-({[7-(8-chloronaphthalen-1-yl)-4-[(3S)-3-(cyanomethyl)-4-(prop-2-enoyl)piperazin-1-yl]-5H,6H,8H-pyrido[3,4-d]pyrimidin-2-yl]oxy}methyl)-1-methylpyrrolidin-2-yl]methyl}piperazine-1-carbonyl)piperidin-1-yl]methyl}phenyl)-5-(2,4-dihydroxy-5-isopropylphenyl)-N-ethyl-1,2,4-triazole-3-carboxamide]	< 100 nM	< 100 nM	100 to 1000 nM	–
C=CC(=O)N1CCN(c2nc(OC[C@@H]3C[C@H](N4CCN(Cc5ccc(-n6c(O)nnc6-c6cc(C(C)C)c(O)cc6O)cc5)CC4)CN3C)nc3c2CCN(c2cccc4cccc(Cl)c24)C3)C[C@@H]1CC#N [Compound 241, 2-[(2S)-4-[7-(8-chloronaphthalen-1-yl)-2-{[(2S,4S)-4-[4-({4-[3-(2,4-dihydroxy-5-isopropylphenyl)-5-hydroxy-1,2,4-triazol-4-yl]phenyl}methyl)piperazin-1-yl]-1-methylpyrrolidin-2-yl]methoxy}-5H,6H,8H-pyrido[3,4-d]pyrimidin-4-yl]-1-(prop-2-enoyl)piperazin-2-yl]acetonitrile]	100 to 1000 nM	< 100 nM	> 1000 nM	–
C=CC(=O)N1CCN(c2nc(OC[C@@H]3CC[C@H](CN4CCN(C(=O)C5CCN(Cc6ccc(-n7c(C(=O)NCC)nnc7-c7cc(CC)c(O)cc7O)cc6)CC5)CC4)N3C)nc3c2CCN(c2cccc4cccc(Cl)c24)C3)C[C@@H]1CC#N [Compound 244, 4-(4-{[4-(4-{[(2R,5S)-5-({[7-(8-chloronaphthalen-1-yl)-4-[(3S)-3-(cyanomethyl)-4-(prop-2-enoyl)piperazin-1-yl]-5H,6H,8H-pyrido[3,4-d]pyrimidin-2-yl]oxy}methyl)-1-methylpyrrolidin-2-yl]methyl}piperazine-1-carbonyl)piperidin-1-yl]methyl}phenyl)-N-ethyl-5-(5-ethyl-2,4-dihydroxyphenyl)-1,2,4-triazole-3-carboxamide]	< 100 nM	< 100 nM	100 to 1000 nM	–
C=CC(=O)N1CCN(c2nc(OC[C@@H]3CC[C@H](CN4CCN(C(=O)C5CCN(Cc6ccc(-n7c(O)nnc7-c7cc(CC)c(O)cc7O)cc6)CC5)CC4)N3C)nc3c2CCN(c2cccc4cccc(Cl)c24)C3)C[C@@H]1CC#N [Compound 245, 2-[(2S)-4-[7-(8-chloronaphthalen-1-yl)-2-{[(2S,5R)-5-({4-[1-({4-[3-(5-ethyl-2,4-di hydroxyphenyl)-5-hydroxy-1,2,4-triazol-4-yl]phenyl}methyl)piperidine-4-carbonyl]piperazin-1-yl}methyl)-1-methylpyrrolidin-2-yl]methoxy}-5H,6H,8H-pyrido [3,4-d]pyrimidin-4-yl]-1-(prop-2-enoyl)piperazin-2-yl]acetonitrile]	100 to 1000 nM	< 100 nM	> 1000 nM	–
C=CC(=O)N1CCN(c2nc(OC[C@@H]3C[C@H](N4CCC(C(=O)N5CCN(Cc6ccc(-n7c(O)nnc7-c7cc(C(C)C)c(O)cc7O)cc6)CC5)CC4)CN3C)nc3c2CCN(c2cccc4ccccc24)C3)C[C@@H]1CC#N [Compound 246, 2-[(2S)-4-(2-{[(2S,4S)-4-{4-[4-({4-[3-(2,4-dihydroxy-5-isopropylphenyl)-5-hydro-xy-1,2,4-triazol-4-yl]phenyl}methyl)piperazine-1-carbonyl]piperidin-1-yl}-1-methylpyrrolidin-2-yl]methoxy}-7-(naphthalen-1-yl)-5H,6H,8H-pyrido[3,4-d]pyrimidin-4-yl)-1-(prop-2-enoyl)piperazin-2-yl]acetonitrile]	100 to 1000 nM	< 100 nM	> 1000 nM	–
C=CC(=O)N1CCN(c2nc(OC[C@@H]3C[C@H](N4CCC(C(=O)N5CCN(Cc6ccc(-n7c(O)nnc7-c7cc(C)c(O)cc7O)cc6)CC5)CC4)CN3C)nc3c2CCN(c2cccc4ccccc24)C3)C[C@@H]1CC#N [Compound 247, 2-[(2S)-4-(2-{[(2S,4S)-4-{4-[4-({4-[3-(2,4-dihydroxy-5-methylphenyl)-5-hydroxy-1,2,4-triazol-4-yl]phenyl}methyl)piperazine-1-carbonyl]piperidin-1-yl}-1-methylpyrrolidin-2-yl]methoxy}-7-(naphthalen-1-yl)-5H,6H,8H-pyrido[3,4-d]pyrimidin-4-yl)-1-(prop-2-enoyl)piperazin-2-yl]acetonitrile]	> 1000 nM	< 100 nM	> 1000 nM	–
C=CC(=O)N1CCN(c2nc(OC[C@@H]3C[C@H](N4CCC5(CCN(Cc6ccc(-n7c(O)nnc7-c7cc(C(C)C)c(O)cc7O)cc6)CC5)CC4)CN3C)nc3c2CCN(c2cccc4ccccc24)C3)C[C@@H]1CC#N [Compound 248, 2-[(2S)-4-(2-{[(2S,4S)-4-[9-({4-[3-(2,4-dihydroxy-5-isopropylphenyl)-5-hydroxy-1,2,4-triazol-4-yl]phenyl}methyl)-3,9-diazaspiro[5.5]undecan-3-yl]-1-methylpyrrolidin-2-yl]methoxy}-7-(naphthalen-1-yl)-5H,6H,8H-pyrido[3,4-d]pyrimidin-4-yl)-1-(prop-2-enoyl)piperazin-2-yl]acetonitrile]	100 to 1000 nM	100 to 1000 nM	100 to 1000 nM	–
C=CC(=O)N1CCN(c2nc(OCCN3CCC(C(=O)N4CCN(Cc5ccc(-n6c(C(=O)NCC(F)(F)F)nnc6-c6cc(C)c(O)cc6O)cc5)CC4)CC3)nc3c2CCN(c2cccc4cccc(Cl)c24)C3)C[C@@H]1CC#N [Compound 250, (S)-4-(4-((4-(1-(2-((4-(4-acryloyl-3-(cyanomethyl)piperazin-1-yl)-7-(8-chloronaphthalen-1-yl)-5,6,7,8-tetrahydropyrido[3,4-d]pyrimidin-2-yl)oxy)ethyl)piperidine-4-carbonyl)piperazin-1-yl)methyl)phenyl)-5-(2,4-dihydroxy-5-methylphenyl)-N-(2,2,2-trifluoroethyl)-4H-1,2,4-triazole-3-carboxamide]	–	< 100 nM	> 1000 nM	100 to 1000 nM
